Marks after values point to notes of the source that are not given here.
Legend:
[1] = system: keratinocyte growth factor (KGF); test: RT-PCR expression of hair-related gene KGF in dermal papilla cells; assay type: cell-based; conditions: 1 μg/mL minoxidil, 18 hours
Description: (§1) RT-PCR (reverse transcription polymerase chain reaction) was conducted in order to investigate the effect on the expression of hair-related genes, insulin-like growth factor 1 (IGF-1), hepatocyte growth factor (HGF) and keratinocyte growth factor (KGF). Dermal papilla cells were seeded onto a 100-mm cell culture dish at a density of 80% and then cultured for 24 hours at 37° C. in a 5% CO2 incubator. DMEM (Dulbecco's modified Eagle's medium, BRL, USA) containing 10% bovine serum was used as a medium. After adding 100 μg/mL of a sample (Examples 1-1, 1-2, 1-3 and 1-4; Comparative Examples 1-1, 1-2 and 1-3; Examples 2-1, 2-2 and 2-3) or 1 μg/mL minoxidil as a positive control group, the cells were cultured for 18 hours and RNA was isolated by adding 1 mL of Trizol (Invitrogen, USA) according to the Promega's method. After quantifying RNA at 260 nm using a UV detector, RT-PCR was conducted. The RT-PCR was conducted using a RT-PCR kit (All-in-one RT-PCR kit, SuperBio, Korea) under the condition of 40 cycles of reverse transcription at 50° C. for 30 minutes followed by inactivation of reverse transcriptase at 96° C. for 3 minutes, 94° C. for 30 seconds, 58° C. for 30 seconds and 72° C. for 1 minute. The result was represented as percentage (%) of expression relative to the negative control group (Table 3).

[2] = system: insulin-like growth factor 1 (IGF-1); test: RT-PCR expression of hair-related gene IGF-1 in dermal papilla cells; assay type: cell-based; conditions: 1 μg/mL minoxidil, 18 hours
Description: as §1

[3] = system: C57BL/6 mice depilated on the back; test: Animal experiment for hair growth-promoting effect in depilated mice; assay type: in vivo, mouse; conditions: 5 wt % minoxidil, 0.2 mL topical once a day
Description: The hair growth-promoting effect of the composition of the present disclosure was investigated using C57BL/6 mice. 49- to 51-day-old C57BL/6N mice, in the second […], were depilated completely on the back using wax. While applying 0.2 mL of Example 2-1 or 2-3 at a solid content of 1 wt % or 20 wt %, or 5 wt % minoxidil as a positive control group, diluted in water, once a day for 16 days, hair-growing effect was monitored. Distilled water was used as a negative control group. The hair growth index with time was evaluated by the 3-point scale (see Table 4).

[4] = system: hepatocyte growth factor (HGF); test: RT-PCR expression of hair-related gene HGF in dermal papilla cells; assay type: cell-based; conditions: 1 μg/mL minoxidil, 18 hours
Description: as §1

Nc1cc(N2CCCCC2)nc(N)[n+]1[O-] [Minoxidil, minoxidil]
KGF expression relative to the negative control group [1]: 120.2%**
IGF-1 expression relative to the negative control group [2]: 119.0%**
Hair growth index (3-point scale) ([3]; Day 0): 0 points
Hair growth index (3-point scale) ([3]; Day 12): 1.22 ± 0.26 points
Hair growth index (3-point scale) ([3]; Day 16): 2.66 ± 0.23 points
HGF expression relative to the negative control group [4]: 134.6%**
